Measurements as given in ChEMBL document CHEMBL3232987, “Investigation of Ugi-4CC derived 1H-tetrazol-5-yl-(aryl) methyl piperazinyl-6-fluoro-4-oxo-1,4-dihydroquinoline-3-carboxylic acid: synthesis, biology and 3D-QSAR analysis” (Eur J Med Chem, 2014).
In brackets after ≈: the same amount, converted by molar mass.

Legend:
[1] = system: Klebsiella pneumoniae; assay: Antibacterial activity against Klebsiella pneumoniae after 24 hrs by spectrophotometric analysis; type: functional, organism-based
[2] = system: Staphylococcus aureus; assay: Antibacterial activity against methicillin-resistant Staphylococcus aureus ATCC 700699 after 24 hrs by spectrophotometric analysis; type: functional, organism-based
[3] = system: Staphylococcus aureus; assay: Antibacterial activity against Staphylococcus aureus ATCC 29213 by NCCLS two-fold dilution method; type: functional
[4] = system: Escherichia coli; assay: Antibacterial activity against Escherichia coli by NCCLS two-fold dilution method; type: functional
[5] = system: Klebsiella pneumoniae; assay: Antibacterial activity against Klebsiella pneumoniae by NCCLS two-fold dilution method; type: functional
[6] = system: Staphylococcus aureus; assay: Antibacterial activity against Staphylococcus aureus ATCC 25923 after 24 hrs by spectrophotometric analysis; type: functional, organism-based
[7] = system: Staphylococcus aureus; assay: Antibacterial activity against Staphylococcus aureus ATCC 29213 after 24 hrs by spectrophotometric analysis; type: functional, organism-based
[8] = system: Staphylococcus aureus; assay: Antibacterial activity against gentamicin-resistant Staphylococcus aureus ATCC 33592 by NCCLS two-fold dilution method; type: functional
[9] = system: Staphylococcus aureus; assay: Antibacterial activity against methicillin-resistant Staphylococcus aureus ATCC 700699 by NCCLS two-fold dilution method; type: functional
[10] = system: Staphylococcus aureus; assay: Antibacterial activity against gentamicin-resistant Staphylococcus aureus ATCC 33592 after 24 hrs by spectrophotometric analysis; type: functional, organism-based
[11] = system: Escherichia coli; assay: Antibacterial activity against Escherichia coli after 24 hrs by spectrophotometric analysis; type: functional, organism-based
[12] = system: Staphylococcus aureus; assay: Antibacterial activity against Staphylococcus aureus ATCC 25923 by NCCLS two-fold dilution method; type: functional; settings: for MIC: Staphylococcus aureus, ATCC 25923
[13] = system: L929; assay: Cytotoxicity against mouse L929 cells assessed as cell viability up to MIC 0.39 ug/ml after 24 hrs by MTT assay; type: cell-based; settings: l929, 24 h
[14] = Staphylococcus aureus, ATCC 700699, 24 h
[15] = Staphylococcus aureus, ATCC 700699, 24 h, read-out: IC50
[16] = Staphylococcus aureus, ATCC 25923, 24 h
[17] = Staphylococcus aureus, ATCC 25923, 24 h, read-out: IC50
[18] = Staphylococcus aureus, ATCC 29213, 24 h
[19] = Staphylococcus aureus, ATCC 29213, 24 h, read-out: IC50
[20] = Staphylococcus aureus, ATCC 33592, 24 h
[21] = Staphylococcus aureus, ATCC 33592, 24 h, read-out: IC50

Compound | MIC [2, 14] | IC50 [2, 15] | MIC [3] | MIC [6, 16] | IC50 [6, 17] | MIC [7, 18] | IC50 [7, 19] | MIC [8] | MIC [9] | MIC [10, 20] | IC50 [10, 21] | -logMIC [12] | MIC [12] | Activity [13] | further results
O=C(O)c1cn(Cc2ccc(C(F)(F)F)cc2)c2cc(N3CCN(C(c4ccco4)c4nnnn4C4CCCCC4)CC3)c(F)cc2c1=O (centres undefined) | 50 µg/mL (≈ 73.6 µM) | > 50 µg/mL | 1.56 µg/mL (≈ 2.3 µM) | 0.52 µg/mL (≈ 0.765 µM) | 0.2 µg/mL (≈ 0.294 µM) | 0.82 µg/mL (≈ 1.21 µM) | 0.75 µg/mL (≈ 1.1 µM) | 0.78 µg/mL (≈ 1.15 µM) | 50 µg/mL (≈ 73.6 µM) | 0.78 µg/mL (≈ 1.15 µM) | 0.4 µg/mL (≈ 0.589 µM) | 5.939 | 0.78 µg/mL (≈ 1.15 µM) | Non-toxic | MIC ([1]; Klebsiella pneumoniae, 24 h): 3.4 µg/mL (≈ 5 µM); IC50 ([1]; Klebsiella pneumoniae, 24 h, read-out: IC50): 1.7 µg/mL (≈ 2.5 µM); MIC [4]: 6.25 µg/mL (≈ 9.2 µM); MIC [5]: 6.25 µg/mL (≈ 9.2 µM); MIC ([11]; Escherichia coli, 24 h): 4.2 µg/mL (≈ 6.18 µM); IC50 ([11]; Escherichia coli, 24 h, read-out: IC50): 2.9 µg/mL (≈ 4.27 µM)
CCn1cc(C(=O)O)c(=O)c2cc(F)c(N3CCN(C(c4ccc(F)cc4)c4nnnn4C(C)(C)C)CC3)cc21 (centres undefined) | 12.5 µg/mL (≈ 22.7 µM) | 10 µg/mL (≈ 18.1 µM) | 0.78 µg/mL (≈ 1.41 µM) | 0.9 µg/mL (≈ 1.63 µM) | 0.3 µg/mL (≈ 0.544 µM) | 0.7 µg/mL (≈ 1.27 µM) | 0.2 µg/mL (≈ 0.363 µM) | 0.78 µg/mL (≈ 1.41 µM) | 12.5 µg/mL (≈ 22.7 µM) | 0.5 µg/mL (≈ 0.906 µM) | 0.2 µg/mL (≈ 0.363 µM) | 5.548 | 0.78 µg/mL (≈ 1.41 µM) | Non-toxic | –
CC(C)(C)n1nnnc1C(c1ccc(F)cc1)N1CCN(c2cc3c(cc2F)c(=O)c(C(=O)O)cn3Cc2ccc(C(F)(F)F)cc2)CC1 (centres undefined) | 19.8 µg/mL (≈ 29 µM) | 8.09 µg/mL (≈ 11.9 µM) | 3.12 µg/mL (≈ 4.58 µM) | 3.1 µg/mL (≈ 4.55 µM) | 1 µg/mL (≈ 1.47 µM) | 1.6 µg/mL (≈ 2.35 µM) | 1.4 µg/mL (≈ 2.05 µM) | 6.25 µg/mL (≈ 9.17 µM) | 25 µg/mL (≈ 36.7 µM) | 2.5 µg/mL (≈ 3.67 µM) | 0.5 µg/mL (≈ 0.733 µM) | 5.037 | 6.25 µg/mL (≈ 9.17 µM) | Non-toxic | –
GENTAMICIN | – | – | – | – | – | – | – | – | – | – | – | – | – | – | IC50 [1]: 1.7 µg/mL; IC50 [2]: > 50 µg/mL; IC50 [6]: 1.7 µg/mL; IC50 [7]: > 50 µg/mL; IC50 [10]: > 50 µg/mL; IC50 [11]: 1.7 µg/mL
